From patent US20230083417A1, “THERAPEUTIC COMBINATION FOR THE TREATMENT OF BRAIN ISCHEMIA AND SAID THERAPEUTIC COMBINATION FOR USE IN THE TREATMENT OF BRAIN ISCHEMIA” (Universiteit Maastricht, priority 2020, published 2023)
Entries after “also recorded” stand apart in the source; their conditions may differ.

Legend:
[1] = tested on: Human Brain Microvascular Endothelial Cells (HBMEC); assay: HBMEC subjected to hypoxia (OGD), cell viability by MTT (Example 3); format: cell-based; conditions: 6 h hypoxia, 24 h reperfusion; GKT136901 0.1 μM, BAY58-2667 0.01 μM, STMC 0.3 μM, alone or combined
Protocol: Human Brain Microvascular Endothelial Cells (HBMEC) Subjected to Hypoxia. —HBMEC (Cell systems, USA) between passage 3 and 9 were cultured using specialized cell medium enriched with 5% fetal bovine serum. HBMECs were seeded (6×10^4 cells/ml) in 12 wells-plates and incubated during 24 h at 37° C. Later, cell medium was replaced for non-FBS containing medium followed by 6 h of hypoxia (94.8% N2, 0.2% O2 and 5% CO2) at 37° C. using hypoxia workstations. The hypoxia period was followed by 24 h of reperfusion in presence or absence of GKT136901 (GKT, 0.1 μM; NOXi), BAY58-2667 (BAY58, 0.01 μM; sGCa) or S-methyl-1-thiocitrulline (STMC, 0.3 μM; NOSi) or a combination of the three. Control cells were exposed to normoxia (75% N2, 20% O2 and 5% CO2), normal glucose concentration and enriched medium during the hypoxia period (Basal). After 24 h reperfusion, cell viability was assessed using the colorimetric MTT assay. MTT solution (5 mg/ml) was added to each well (100 μl/ml) and incubated for 2 h at 37° C. The formazan salt formed was solubilized by adding […] DMSO and measured spectrophotometrically at 540 nm.

[2] = tested on: mice subjected to 45 min tMCAO; assay: 45 min tMCAO in non-diabetic and STZ-diabetic mice, infarct size; format: in vivo; conditions: i.p., GKT137831 10 mg/kg, SMTC 1 mg/kg, BAY58-2667 0.03 mg/kg, single or combined
Protocol: Diabetes was induced in mice (6-9 weeks old) by i.p. injections of streptozotocin (STZ) (Merck Millipore, The Netherlands) dissolved in 0.5M sodium citrate buffer with a final dose of 55 mg/kg during 5 consecutive days. Blood glucose was measured daily for 7 days after the last STZ injection using a glucometer (Contor XT, Ascensia Diabetes Care, The Netherlands). Blood glucose levels higher than 12 mM 7 days after STZ injections were considered diabetic and therefore included in the study. Diabetic mice were monitored daily for any signs of welfare discomfort, and blood glucose levels were followed-up weekly (FIG. 18 (Table S2), FIG. 19 (Table S3)).
Therefore, only the combination therapy was assessed.
After animal sacrificing, brains were quickly removed and cut into four 2 mm thick coronal sections using a mouse brain slicer matrix (Zivic Instruments, The Netherlands). Brain slices were kept at 4° C. during 5 min and later stained using 2% 2,3,5-triphenyltetrazolium (TTC; Sigma-Aldrich, The Netherlands) for 15 min at room temperature in PBS to visualize the infarctions. Indirect infarct volumes were calculated by volumetry (ImageJ software, National Institutes of Health, USA) according to the following equation:
Vindirect (mm^3)=Vinfarct×(1−(Vih−Vch)/Vch)
where the term (Vih−Vch) represents the volume difference between the ischemic hemisphere and the control hemisphere and (Vih−Vch)/Vch expresses this difference as a percentage of the control hemisphere.

[3] = tested on: Human Brain Microvascular Endothelial Cells (HBMECs); assay: HBMEC under hypoxic conditions, cell viability by MTT (Example 5); format: cell-based; conditions: 6 h hypoxia, 24 h re-oxygenation; GKT137831 0.3 μM, SMTC 0.1 μM, BAY 58-2667 0.03 μM, single or combined
Protocol: HBME cells (Cell systems, USA) between passage 3 and 9 were cultured to ˜95% confluence using a specialized cell medium and grow factors (EGM-2 MV BulletKit, Lonza, The Netherlands) enriched with 5% fetal bovine serum (FBS; Sigma-Aldrich, The Netherlands). Before being subjected to hypoxia, HBMECs were seeded at 6×10^4 cells/ml in 12 wells-plate and incubated for 24 h at 37° C. Then, the cell medium was replaced with non-FBS containing medium (2 ml/well) followed by 6 h of hypoxia (94.8% N2, 0.2% 02 and 5% CO2) at 37° C. using the hypoxia workstations (Ruskin Invivo2 400 station, The Netherlands). […] Control cells were exposed to normoxia (75% N2, 20% O2, and 5% CO2) and enriched medium during the hypoxia period.
24 h post-re-oxygenation, cell viability was assessed using the colorimetric MTT (3-(4,5-dimethylthiazol-2-yl)-2,5-diphenyltetrazolium bromide) assay (24). MTT solution (5 mg/ml) was added (100 μl/ml) and incubated for 2 h at 37° C. The formazan salt formed was solubilized by adding DMSO (250 μl/well) for later measuring spectrophotometrically its optical density at 540 nm.

[4] = tested on: rat hippocampal brain slices; assay: Rat hippocampal brain slices, OGD and re-oxygenation, cell viability by MTT; format: cell-based; conditions: 15 min OGD, 2 h re-oxygenation, GKT136901 0.1 μM, L-NAME 0.3 μM, BAY60-2770 0.01 μM, separately or combined at identical concentrations, vs untreated OGD
Source text: Rat Hippocampal Brain Slice Experiments. —2-3 months old adult male Sprague-Dawley rats were used. For hippocampal slices preparation and induction of oxygen deprivation and glucose deprivation (OGD), animals were decapitated and the brains were removed and transferred into ice-cold Krebs bicarbonate dissection buffer containing glucose and sucrose. Thereafter, hippocampi were dissected and sectioned in transverse slices of 250 μm. To stabilize tissue after slicing, slices were transferred to sucrose-free dissection buffer during 45 minutes at 34° C. Then, control group slices were incubated 15 minutes in a Krebs solution. Slices subjected to OGD were incubated in a Krebs buffer pre-bubbled with 95% N2/5% CO2, where 2-deoxyglucose replaced glucose. OGD period was followed by 2 h of re-oxygenation at 37° C. where slices were returned back to an oxygenated Krebs solution containing glucose^8. During the re-oxygenation period, slices were treated with 0.01 μM BAY60-2770 (BAY; sGCa), 0.1 μM GKT136901 (GKT; NOXi) and 0.3 μM L-NAME (LN; NOSi) separately and in combination at identical respective doses of: NOXi and NOSi, NOSi and sGCa, NOXi and sGCa, and NOXi, NOSi and sGCa. Cellular viability was quantified by their ability to reduce MTT. After re-oxygenation, slices were incubated with MTT (0.5 mg/ml) in Krebs bicarbonate solution for 40 minutes at 37° C. The formazan produced was solubilized by adding 200 μl dimethyl sulfoxide, giving a colored compound whose optical density was measured in an ELISA microplate reader at 540 nm^9. The results of these measurements are depicted in FIG. 2, FIG. 4, FIG. 6 and FIG. 7.

[5] = tested on: C57BL/6J mice subjected to middle cerebral artery occlusion (MCAO); assay: In vivo MCAO ischemia model (1 h tMCAO), infarct volume by TTC; conditions: for infarct volume: i.p. 1 h after reperfusion, L-NAME 3 mg/kg, GKT136901 10 mg/kg, BAY60-2770 0.5 μg/kg; for infarct volume / infarct size, single therapy: 24 h; for infarct volume / infarct volume, subthreshold doses and triple combination: alone or combined at identical doses; for infarct volume, subthreshold doses and triple combination: 1 h post-ischemia, i.p., PTU 3 mg/kg, PPZ 1 mg/kg, riociguat 0.004 mg/kg; for infarct size, single therapy: i.p. 1 h post-reperfusion, perphenazine 3 mg/kg, PTU 9 mg/kg, riociguat 0.01 mg/kg
Protocol: In vivo MCAO Ischemia Model. —C57BL/6J mice were subjected to middle cerebral artery occlusion (MCAO) during 1 h followed by 24 h of reperfusion. Mice were anesthetized with 1.5% isoflurane (Abbott) in a 70% N2O/30% O2 mixture. Core body temperature was maintained at 37° C. The external carotid artery was ligated and a rubber-coated 6.0 nylon monofilament (6021; Doccol) was inserted to occlude the origin of the right MCA for 60 minutes. Then, animals were re-anesthetized and the occluding monofilament was withdrawn to allow for reperfusion^10. L-NAME (NOSi, 3 mg/kg) or propylthiouracil (NOSi, 9 mg/kg), GKT136901 (NOXi, 10 mg/kg) or perphenazine (NOXi, 3 mg/kg) and BAY60-2770 (sGCa, 0.5 μg/kg) or riociguat (sGCs, 0.1 mg/kg), as well as combinations of these compounds were dissolved and vehicle or compound(s) were injected intraperitoneally (i.p.) 1 h after reperfusion. After 23 h of reperfusion animals were sacrificed and brains were quickly removed and cut in 3 2-mm thick coronal sections. The slices were stained for 10 minutes at 37° C. with 2% 2,3,5-triphenyltetrazolium chloride (TTC, Sigma-Aldrich) in PBS to visualize the infarct volume. The results of these measurements are shown in FIG. 1, FIG. 3, FIG. 5 and FIG. 9.
Based on a repurposing strategy, already marketed compounds validated as NOX inhibitors and NOS inhibitors were selected for further pre-clinical experimentation. Similarly, an already approved sGC stimulator was included repurposed for a non-cardiovascular indication. Wildtype mice were subjected to 1 h tMCAO and subsequently treated with each compound separately, in double combination or triple for later assessment of infarct volume 24 h post-stroke (FIG. 15A-G).

SMILES | cell viability (MTT) [1] | infarct size 24 h post-stroke, non-diabetic mice [2] | cell viability, normal glucose [3] | infarct volume [5] | infarct volume, subthreshold doses and triple combination [5] | infarct size, single therapy [5] | other results
O=C(O)CCCCN(CCc1ccccc1OCc1ccc(CCc2ccccc2)cc1)Cc1ccc(C(=O)O)cc1 [BAY58-2667, cinaciguat] | lower cell viability than the control cells (Basal) | no effect was detected | no reduction was detected | – | – | – | –
O=C(O)CCCCN(CCc1cc(F)ccc1OCc1ccc(-c2ccc(C(F)(F)F)cc2)cc1)Cc1ccc(C(=O)O)cc1 [BAY60-2770] | – | – | – | potent activity in reducing the infarct volume | – | – | cell viability (MTT reduction) [4]: Neither the NOSi (L-NAME), nor the sGCa (BAY60) alone was able to improve cell viability; cell viability (MTT reduction) ([4]; listed as BAY): did not show improved cell viability; infarct volume ([5]; listed as BAY60): reduced infarct volume
Cc1c2c(=O)n(-c3ccccc3Cl)[nH]c2cc(=O)n1Cc1ccccn1 [GKT136901] | only a relatively small improvement in cell viability | – | – | potent activity in reducing the infarct volume | – | – | cell viability (MTT reduction) ([4]; listed as GKT): able to restore the cell viability of the hippocampal cells to some extent; also recorded: able to improve cell viability
CN(C)c1cccc(-c2c3c(=O)n(-c4ccccc4Cl)[nH]c3cc(=O)n2C)c1 [GKT137831] | – | no effect was detected | no reduction was detected | – | – | – | –
COC(=O)[C@@H](N)CCCNC(=N)N[N+](=O)[O-] [L-NAME, N omega-Nitro-L-arginine methyl ester] | – | – | – | potent activity in reducing the infarct volume | – | – | cell viability (MTT reduction) [4]: Neither the NOSi (L-NAME), nor the sGCa (BAY60) alone was able to improve cell viability; cell viability (MTT reduction) ([4]; listed as LN): able to restore the cell viability of the hippocampal cells to some extent; infarct volume ([5]; listed as LN): reduced infarct volume
OCCN1CCN(CCCN2c3ccccc3Sc3ccc(Cl)cc32)CC1 [PPZ, perphenazine] | – | – | – | – | not able to reduce infarct volume; also recorded: no reduction of infarct volume; also recorded: without effect | significantly smaller infarct size | –
CCCc1cc(=O)[nH]c(=S)[nH]1 [PTU, propylthiouracil] | – | – | – | – | not able to reduce infarct volume; also recorded: no reduction of infarct volume; also recorded: without effect | tends to reduce | –
COC(=O)N(C)c1c(N)nc(-c2nn(Cc3ccccc3F)c3ncccc23)nc1N [Rio, riociguat] | – | – | – | – | not able to reduce infarct volume; also recorded: no reduction of infarct volume; also recorded: without effect | significantly smaller infarct size | –
CSC(N)=NCCC[C@H](N)C(=O)O [SMTC, S-Methyl-L-thiocitrulline] | only a relatively small improvement in cell viability | no effect was detected | no reduction was detected | – | – | – | –
